One test concerns the target hCA IX (Homo sapiens, UniProt Q16790). Briefly: hCA IX enzyme inhibition assay (4-NPA hydrolysis).
The target in a further test is hCA II (Homo sapiens, UniProt P00918). Briefly: hCA II enzyme inhibition assay (4-NPA hydrolysis).
Another test addresses hCA XII (Homo sapiens, UniProt O43570). Briefly: hCA XII enzyme inhibition assay (4-NPA hydrolysis).
The test system of test [1] is breast adenocarcinoma MDA-MB-231 cells. Briefly: CCK-8 cell viability assay, MDA-MB-231. The test is classed as cell-based, human. The note with it: Homo sapiens, MDA-MB-231; Table S2. How it is done:
(§1) The MDA-MB-231, HT-29 and MG-63 cell lines were provided by KeyGEN BioTECH Ltd (Nanjing, Jiangsu, China). The cells were digested and counted to prepare a cell suspension of 5.0 × 10^4 cells/mL, and then 100 μL of cell suspension was added to each well of the 96-well cell culture plate. The plates were placed in a 37 °C, 5% CO2 incubator (Corning Incorporated, Corning, New York, USA) for 24 h. The drug was diluted with the culture medium to the required concentration, ed100 μL of the corresponding drug-containing medium was added to each well, and a negative control group was set up at the same time. The 96-well cell culture plates were placed into a normoxic incubator (37 °C, 5% CO2) and hypoxic incubator (37 °C, 5% CO2, 0.5% O2, 94.5% N2) for 48 h. Finally, the 96-well plate was stained with CCK-8 and the OD value determined (λ = 450 nm).

In test [2] the test system is human colon cancer HT-29 cells. The experiment in a line: CCK-8 cell viability assay, HT-29. The note with it: Homo sapiens, HT-29; Table S2. Type of test: cell-based. How it is done:
as §1
Background: Formazan colour is commonly taken as a measure of viable cells.

Structures are written as SMILES. Values after ≈ are worked out from the molar mass of the structure shown.

hCA XII, sequence (O43570 25-354): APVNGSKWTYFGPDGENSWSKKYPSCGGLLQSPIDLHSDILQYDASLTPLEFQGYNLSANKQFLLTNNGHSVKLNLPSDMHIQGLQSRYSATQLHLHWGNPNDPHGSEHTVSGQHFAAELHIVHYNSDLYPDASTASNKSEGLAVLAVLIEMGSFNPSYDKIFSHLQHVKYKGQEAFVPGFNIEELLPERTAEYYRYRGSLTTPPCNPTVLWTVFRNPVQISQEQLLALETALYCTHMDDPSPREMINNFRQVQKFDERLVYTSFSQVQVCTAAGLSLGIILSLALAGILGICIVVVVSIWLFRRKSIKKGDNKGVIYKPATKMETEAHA
Description for hCA II: (§2) Carbonic anhydrase can catalyze the hydrolysis of 4-nitrophenyl acetate (4-NPA). […] The experimental buffer consisted of 15 mmol/L 4-(2-hydroxyethyl)-1-piperazineethanesulfonic acid (HEPES) (pH = 7.40), 0.01% tetraethylene glycol monododecyl ether (Brij), and 100 mmol/L NaCl. […] Then, 18 μL of enzyme solution was transferred into 384-well plates in duplicate. Stock solutions of the inhibitors (10.0 mmol/L) were prepared using DMSO as solvent, and then diluted 1:3 with DMSO. […] Then 2.00 μL of each inhibitor was added to each well. All compounds were allowed to incubate with the enzyme for 15 min at 25 °C to form the Enzyme-Inhibitor (E-I) complex. After that, substrate 4-NPA (1.00 mmol/L, 20.00 μL, Sigma-Aldrich, St. Louis, MI, USA) was added into the E-I complex solution and incubated for 60, 90, 90 min at 25 °C, respectively.
Description for hCA IX: as §2
Description for hCA XII: as §2

As usually defined, the IC50 is the concentration needed to halve the response being measured. The low end stands for inhibition by little substance, the high end for a need for much substance. Molecule `Nc1ccc(C(=O)Nc2nnc(S(N)(=O)=O)s2)cc1` [Compound 12a, 4-Amino-N-(5-sulfamoyl-1,3,4-thiadiazol-2-yl)benzamide] had an IC50 on hCA IX of 44.6 ± 8.3 nM.
Take `Nc1cccc(C(=O)Nc2nnc(S(N)(=O)=O)s2)c1` [Compound 12b, 3-Amino-N-(5-sulfamoyl-1,3,4-thiadiazol-2-yl)benzamide]: the IC50 against hCA IX is 63.8 ± 6.3 nM; against hCA II, 79.1 ± 5.4 nM.
Turning to `Nc1ccc(C(=O)Nc2nnc(S(N)(=O)=O)s2)cc1F` [Compound 12c, 4-Amino-3-fluoro-N-(5-sulfamoyl-1,3,4-thiadiazol-2-yl)benzamide], the IC50 at hCA IX is 41.3 ± 6.2 nM; against hCA II it was 242 ± 9.4 nM.
Take `Nc1ccc(C(=O)Nc2nnc(S(N)(=O)=O)s2)cc1Cl` [Compound 12d, 4-Amino-3-chloro-N-(5-sulfamoyl-1,3,4-thiadiazol-2-yl)benzamide]: the half-maximal inhibitory concentration (IC50) against hCA IX worked out at 36.5 ± 7.6 nM; against hCA II it was 401 ± 12.3 nM.
On to `Nc1ccc(C(=O)Nc2nnc(S(N)(=O)=O)s2)cc1Br` [Compound 12e, 4-Amino-3-bromo-N-(5-sulfamoyl-1,3,4-thiadiazol-2-yl)benzamide], for which the results for the IC50 against hCA IX and at hCA II were 65.9 ± 8.3 nM and 543 ± 10.3 nM, respectively.
As to `Nc1ccc(C(=O)Nc2nnc(S(N)(=O)=O)s2)cc1[N+](=O)[O-]` [Compound 12f, 4-Amino-3-nitro-N-(5-sulfamoyl-1,3,4-thiadiazol-2-yl)benzamide], the 50% inhibitory concentration (IC50) against hCA IX was found to be 55.1 ± 11.5 nM; at hCA II, 701 ± 13.2 nM. Further, the “selectivity: inhibitory activity for hCA IX higher than that for hCA II” value at hCA IX (hCA IX over hCA II) worked out at 10 times.
As to `Cc1cc(C(=O)Nc2nnc(S(N)(=O)=O)s2)ccc1N` [Compound 12g, 4-Amino-3-methyl-N-(5-sulfamoyl-1,3,4-thiadiazol-2-yl)benzamide], the half-maximal inhibitory concentration (IC50) at hCA IX stood at 43.8 ± 6.6 nM; on hCA II, 120 ± 14.8 nM.
Consider `COc1cc(C(=O)Nc2nnc(S(N)(=O)=O)s2)ccc1N` [Compound 12h, 4-Amino-3-methoxy-N-(5-sulfamoyl-1,3,4-thiadiazol-2-yl)benzamide], for which the IC50 against hCA IX came to 36.4 ± 8.3 nM; against hCA II, 147 ± 15.3 nM.
As for `NS(=O)(=O)c1nnc(NC(=O)c2ccc(NC(=O)CCCC(=O)N[C@@H]3O[C@H](CO)[C@@H](O)[C@H](O)[C@H]3O)c(F)c2)s1` [Compound 14c, N^1-(2-Fluoro-4-((5-sulfamoyl-1,3,4-thiadiazol-2-yl)carbamoyl)phenyl)-N^5-((2R,3R,4S,5S,6R)-3,4,5-trihydroxy-6-(hydroxymethyl)tetrahydro-2H-pyran-2-yl)glutaramide], the IC50 on hCA XII stood at 81.8 ± 11.1 nM; against hCA IX, 76.6 ± 6.2 nM; against hCA II, 215 ± 9.5 nM.
In the case of `NS(=O)(=O)c1nnc(NC(=O)c2ccc(NC(=O)CCCC(=O)N[C@@H]3O[C@H](CO)[C@@H](O)[C@H](O)[C@H]3O)c(Cl)c2)s1` [Compound 14d, N^1-(2-Chloro-4-((5-sulfamoyl-1,3,4-thiadiazol-2-yl)carbamoyl)phenyl)-N^5-((2R,3R,4S,5S,6R)-3,4,5-trihydroxy-6-(hydroxymethyl)tetrahydro-2H-pyran-2-yl)glutaramide], the concentration for half-maximal inhibition (IC50) against hCA IX turned out to be 280 ± 10.2 nM; at hCA II, 765 ± 15.1 nM.
With `NS(=O)(=O)c1nnc(NC(=O)c2ccc(NC(=O)CCCC(=O)N[C@@H]3O[C@H](CO)[C@@H](O)[C@H](O)[C@H]3O)c(Br)c2)s1` [Compound 14e, N^1-(2-Bromo-4-((5-sulfamoyl-1,3,4-thiadiazol-2-yl)carbamoyl)phenyl)-N^5-((2R,3R,4S,5S,6R)-3,4,5-trihydroxy-6-(hydroxymethyl)tetrahydro-2H-pyran-2-yl)glutaramide], the IC50 is 1082 ± 8.5 nM on hCA IX and 886 ± 13.7 nM at hCA II.
The like results for `NS(=O)(=O)c1nnc(NC(=O)c2ccc(NC(=O)CCCC(=O)N[C@@H]3O[C@H](CO)[C@@H](O)[C@H](O)[C@H]3O)c([N+](=O)[O-])c2)s1` [Compound 14f, N^1-(2-Nitro-4-((5-sulfamoyl-1,3,4-thiadiazol-2-yl)carbamoyl)phenyl)-N^5-((2R,3R,4S,5S,6R)-3,4,5-trihydroxy-6-(hydroxymethyl)tetrahydro-2H-pyran-2-yl)glutaramide] were, in that order, 117 ± 6.9 nM and 995 ± 10.6 nM.
Regarding `Cc1cc(C(=O)Nc2nnc(S(N)(=O)=O)s2)ccc1NC(=O)CCCC(=O)N[C@@H]1O[C@H](CO)[C@@H](O)[C@H](O)[C@H]1O` [Compound 14g, N^1-(2-Methyl-4-((5-sulfamoyl-1,3,4-thiadiazol-2-yl)carbamoyl)phenyl)-N^5-((2R,3R,4S,5S,6R)-3,4,5-trihydroxy-6-(hydroxymethyl)tetrahydro-2H-pyran-2-yl)glutaramide], the values for the IC50 at hCA XII, against hCA IX and on hCA II were 70.5 ± 10.9 nM, 53.4 ± 6.2 nM and 165 ± 9.1 nM, respectively.
On to `NS(=O)(=O)c1nnc(NC(=O)c2ccc(NC(=O)CCC(=O)NC3OC(CO)C(O)C(O)C3O)cc2)s1` [Compound 14i, N^1-(4-((5-Sulfamoyl-1,3,4-thiadiazol-2-yl)carbamoyl)phenyl)-N^4-((2R,3R,4S,5S,6R)-3,4,5-trihydroxy-6-(hydroxymethyl)tetrahydro-2H-pyran-2-yl)succinimide], for which the IC50 against hCA XII was 52.8 ± 11.4 nM; against hCA IX, 54.9 ± 6.2 nM; against hCA II it was 197 ± 7.9 nM.
On to `NS(=O)(=O)c1nnc(NC(=O)c2cccc(NC(=O)CCC(=O)N[C@@H]3O[C@H](CO)[C@@H](O)[C@H](O)[C@H]3O)c2)s1` [Compound 14j, N^1-(3-((5-Sulfamoyl-1,3,4-thiadiazol-2-yl)carbamoyl)phenyl)-N^4-((2R,3R,4S,5S,6R)-3,4,5-trihydroxy-6-(hydroxymethyl)tetrahydro-2H-pyran-2-yl)succinimide], for which the IC50 was 40.6 ± 6.9 nM against hCA XII, 69.4 ± 5.7 nM against hCA IX and 260 ± 12.6 nM at hCA II.
Consider `NS(=O)(=O)c1nnc(NC(=O)c2ccc(NC(=O)CCC(=O)N[C@@H]3O[C@H](CO)[C@@H](O)[C@H](O)[C@H]3O)c(F)c2)s1` [Compound 14k, N^1-(2-Fluoro-4-((5-sulfamoyl-1,3,4-thiadiazol-2-yl)carbamoyl)phenyl)-N^4-((2R,3R,4S,5S,6R)-3,4,5-trihydroxy-6-(hydroxymethyl)tetrahydro-2H-pyran-2-yl)succinimide], for which the IC50 against hCA IX was found to be 141 ± 8.1 nM; at hCA II, 474 ± 7.1 nM.
As to `NS(=O)(=O)c1nnc(NC(=O)c2ccc(NC(=O)CCC(=O)N[C@@H]3O[C@H](CO)[C@@H](O)[C@H](O)[C@H]3O)c(Cl)c2)s1` [Compound 14l, N^1-(2-Chloro-4-((5-sulfamoyl-1,3,4-thiadiazol-2-yl)carbamoyl)phenyl)-N^4-((2R,3R,4S,5S,6R)-3,4,5-trihydroxy-6-(hydroxymethyl)tetrahydro-2H-pyran-2-yl)succinimide], the IC50 against hCA IX was determined as 256 ± 7.9 nM; against hCA II, 612 ± 8.5 nM.
Consider `NS(=O)(=O)c1nnc(NC(=O)c2ccc(NC(=O)CCC(=O)N[C@@H]3O[C@H](CO)[C@@H](O)[C@H](O)[C@H]3O)c(Br)c2)s1` [Compound 14m, N^1-(2-Bromo-4-((5-sulfamoyl-1,3,4-thiadiazol-2-yl)carbamoyl)phenyl)-N^4-((2R,3R,4S,5S,6R)-3,4,5-trihydroxy-6-(hydroxymethyl)tetrahydro-2H-pyran-2-yl)succinimide], for which the IC50 at hCA IX amounted to 865 ± 10.7 nM; at hCA II, 824 ± 11.1 nM.
As to `NS(=O)(=O)c1nnc(NC(=O)c2ccc(NC(=O)CCC(=O)N[C@@H]3O[C@H](CO)[C@@H](O)[C@H](O)[C@H]3O)c([N+](=O)[O-])c2)s1` [Compound 14n, N^1-(2-Nitro-4-((5-sulfamoyl-1,3,4-thiadiazol-2-yl)carbamoyl)phenyl)-N^4-((2R,3R,4S,5S,6R)-3,4,5-trihydroxy-6-(hydroxymethyl)tetrahydro-2H-pyran-2-yl)succinimide], the IC50 against hCA IX turned out to be 291 ± 10.9 nM; on hCA II, 1400 ± 24.6 nM.
`Cc1cc(C(=O)Nc2nnc(S(N)(=O)=O)s2)ccc1NC(=O)CCC(=O)N[C@@H]1O[C@H](CO)[C@@H](O)[C@H](O)[C@H]1O` [Compound 14o, N^1-(2-Methy-4-((5-sulfamoyl-1,3,4-thiadiazol-2-yl)carbamoyl)phenyl)-N^4-((2R,3R,4S,5S,6R)-3,4,5-trihydroxy-6-(hydroxymethyl)tetrahydro-2H-pyran-2-yl)succinimide]: the figures for the IC50 against hCA IX and against hCA II were 135 ± 7 nM and 270 ± 13.9 nM, respectively.
Regarding `CC(=O)O[C@H]1C(=O)[C@@]2(C)[C@H]([C@H](OC(=O)c3ccccc3)[C@]3(O)C[C@H](OC(=O)[C@H](O)[C@@H](NC(=O)c4ccccc4)c4ccccc4)C(C)=C1C3(C)C)[C@]1(OC(C)=O)CO[C@@H]1C[C@@H]2O` [Taxol, reference compound], the results for the concentration for half-maximal inhibition (IC50) in test [1] and in test [2] were 0.099 µg/mL (≈ 0.116 µM) and 0.111 µg/mL (≈ 0.13 µM), respectively.
